# Test results reported in patent US20130203843A1, “MILD CATIONIC MITOCHONDRIAL UNCOUPLERS” (LIMITED LIABILITY COMPANY MITOTECH, priority 2010, published 2013).
# Columns and labels:
# [1] = Diffusion potential on planar bilayer lipid membrane ("black membrane" model); conditions: for formation of potential upon creation of gradient of the penetrating cation: 1 μM on cis side, same pH on both sides (pH=7); for formation of proton diffusion potential across lipid bilayer: 1 μM, pH_cis=7, pH_trans=8
# Method: FIG. 1. A. C12R19, but not C12RB, induces formation of proton diffusion potential across planar lipid bilayer membrane prepared from DPhPC. Concentrations of C12R19 and C12RB are 1 μM. pH_cis=7, pH_trans=8. B. Formation of potential upon creation of gradient of penetrating cations C12RB and C12R19 (1 μM on cis side) at the same pH on both sides (pH=7).
# To test penetrating ability of mitochondria-targeted compounds of structure (I), a method based on the ability of ions to penetrate through the bilayer phospholipid membrane moving along concentration gradient was used. The two chambers filled with an aqueous solution are separated by the bilayer membrane, the compound tested is added to one of the chambers. If a charged compound is capable of penetrating through the bilayer membrane, fast diffusion of the compound from the chamber with its high concentration to the chamber with its low concentration occurs, thus difference in the potentials is formed across the membrane. For ions carrying one charge and capable of passive penetrating through the membrane, the 10-fold concentration gradient allows to produce the potential of 60 mV at room temperature and ideal permeability (according to the Nernst equation).
# This method was used in various studies on the ability of ions to penetrate through a bilipid membrane and is described in detail in article: Starkov A A, Bloch D A, Chernyak B V, Dedukhova V I, Mansurova S A, Symonyan R A, Vygodina T V, Skulachev V P, 1997, Biochem. Biophys Acta, 1318, 159-172. With this method, C12-R19 (compound of structure (I)) was tested.
# It is known that addition of protonophore to such a system should lead to formation of the electric potential due to the flow of protons. […] This can be explained by shunting of potential due to induction of proton conductivity in the presence of C12R19.
# [2] = Dissipation of pH gradient in membranes of pyranine-loaded liposomes; conditions: for dissipation of pH gradient (intraliposomal pH change), protonophore activity: in the presence of valinomycin (10 nM), C12R19 and C12RB at 0.15 μM, pH 8 buffer
# Method: FIG. 2. […] Intraliposomal pH was estimated based on the ratio of the intensities of fluorescence at 455 nm and 505 nm (excitation at 410 nm). 1 μM nigericin was added at 550 s for final pH adjustment. Control curve contained C12R19 but no valinomycin. Concentrations: C12R19 (150 nM), C12RB (150 nM), valinomycin (10 nM), lipid (75 μM). […] Control curve corresponds to addition of 10 nM valinomycin without protonophores. Buffer containing 10 mM MES, 10 mM MOPS, 10 mM TRICINE, and 0.1 M KCl (pH 8) was used.
# This method was used in various studies on the protonophore activity and is described in detail in article: Chen Y, Schindler M, Simon S M (1999) J Biol Chem 274:18364-18373. […] Said measurements were performed in the presence of valinomycin, the K^+ ionophore.
# [3] = test system: whole yeast (Saccharomyces cerevisiae) cells; experiment: Rate of oxygen consumption by whole yeast cells; type: cell-based; conditions: for stimulation of respiration versus suppression of growth: wide range of concentrations, yeast grown on nonfermentable substrate (glycerol)
# Method: (§1) FIG. 3. Comparison of properties of C12R19 and C12RB based on relative rate of oxygen consumption by whole yeast (Saccharomyces cerevisiae) cells (A) and yeast growth rate (B). V/V0 corresponds to ratio of oxygen consumption rates after and before addition of uncoupler. Growth rate was defined as the number of CFU (colony-forming units) in cell suspension culture incubated for 2 hours in the presence of indicated concentration of rhodamine derivative.
# (§2) FIG. 4. Comparison of stimulation of respiration and suppression of growth: (A) cationic (C12R19), and (B) anionic (FCCP) uncouplers in yeast (Saccharomyces cerevisiae) cells grown on nonfermentable substrate (glycerol). Stimulation of respiration was estimated based on the ratio of oxygen consumption rate in the presence of uncoupler (V) to initial rate (V0). Growth rate was assessed by increase in the number of cells for a given time interval. Growth rate in the absence of uncoupler was taken as 100%.
# Simulation of respiration of whole yeast cells reflects uncoupling properties of tested compound.
# [4] = test system: yeast Saccharomyces cerevisiae; experiment: Yeast growth rate in the presence of uncoupler; type: cell-based; conditions: 5 μM; incubated for 2 hours
# Method: as §1, §2
# Under similar conditions experiments determining yeast growth rate in the presence of a given concentration of uncoupler were performed.
# [5] = test system: yeast cells treated with 80 μM amiodarone; experiment: Survival of yeast cells treated with amiodarone; type: cell-based, Saccharomyces cerevisiae
# Method: FIG. 5. Comparison of resistance of yeast cells to 80 μM amiodarone in the presence of different concentrations of anionic (FCCP) and cationic (C12R19) uncouplers.
# To test this, we compared the survival of yeast cells treated with 80 μM amiodarone in the presence of 1-10000 nmol/L FCCP and C12R19.
# [6] = test system: rats with induced rhabdomyolysis; experiment: Rhabdomyolysis-induced acute renal failure in rats; type: in vivo; conditions: rat; i.p. 100 nmol/kg per injection, total 400 nmol/kg; 48 h after glycerol; versus rhabdomyolysis without treatment
# Method: FIG. 6. Creatinine level in blood of rats with induced rhabdomyolysis. Histogram bar “control” indicates level of creatinine in control group of animals; “rhabdo”—creatinine level in animals with rhabdomyolysis; “rhabdo+C12-R19”—creatinine level in animals with rhabdomyolysis and treatment with C12R19. All data are presented as mean±standard error of measurement.
# Induction of rhabdomyolysis was performed according to standard method by injecting rat leg muscles with 50% aqueous glycerol solution (ICN, USA). At the second day after ischemia, blood samples from animals were taken. Creatinine concentration in blood was determined using a CellTac blood analyzer (Nihon Kohben). Experiments on modeling of rhabdomyolysis were performed with at least 8 animals from each group. All data are presented as mean±standard error of measurement.
# For the treatment, the following scheme of C12R19 administration was used: intraperitoneal injection of the preparation 1 h after induction of rhabdomyolysis and then three times every 12 hours at a dose of 100 nmol/kg per injection. Thus, an animal received a total dose of 400 nmol/kg of C12R19.
# ischemized rats = experiment: Cerebral ischemia in rats (middle cerebral artery blockage): MRT infarct volume and neurological deficit; type: in vivo; conditions: rat, i.p. 100 nmol/kg 24 hours before ischemia, 1 day after surgery
# Method: FIG. 7. Results of behavioral tests in rats before and at the first day after induction of ischemia. Bar “baseline” indicates final points in animals before surgery; “SO”—points in sham-operated animals; “ischemia+saline”—points in ischemized animals without treatment, with saline solution instead of the preparation; “ischemia+C12R19 0.1 μM” and “ischemia+C12R19 2 μM”—points in ischemized animals with treatment with preparation C12R19 at indicated concentrations. Statistically significant (p<0.01) reduction in severity of neurological deficit in rats treated with C12R19, denoted as
# Cerebral ischemia in rats was induced by insertion of nylon thread with silicone coating into the middle cerebral artery. Blockage of the blood flow was maintained for 60 min, after which the thread was removed from the vessel restoring the blood flow in the middle cerebral artery. During and after the surgery the body temperature of the animal was maintained at 37° C. Sham-operated animals were subjected to the same procedures, except for cutting vessels and insertion of thread. The volume of cerebral infarction was determined at the first day to study neuroprotective effects of preparations. […]
# 1 day after surgery, neurological deficit was determined in rats in the test “Stimulation of legs” and magnetic resonance imaging of the brain was performed. […]
# obese people = obese people treated with DNP; cited from earlier work
# [7] = test system: yeast cells treated with 80 μM amiodarone; conditions: earlier publication (Pozniakovsky 2005); cited from earlier work
smiles,measurement,setting,value
"CCCCCCCCCCCCOC(=O)c1ccccc1-c1c2cc(C)c(=NCC)cc-2oc2cc(NCC)c(C)cc12 (stereo in doubt) [C12R19, Dodecyl-2-[(3E)-6-(ethylamino)-3-(ethylimino)-2,7-dimethyl-3H-xanthen-9-yl]benzoate bromide]",formation of potential upon creation of gradient of the penetrating cation,[1],did not
same,formation of proton diffusion potential across lipid bilayer,[1],can generate potential
same,intraliposomal pH changes,"[2]; in the absence of valinomycin, C12R19 150 nM",pH changes did not occur
same,"dissipation of pH gradient (intraliposomal pH change), protonophore activity",[2],significant changes of intraliposomal pH on the time-scale of minutes
same,rate of respiration of whole yeast cells,[3]; concentration range that includes 5 μM,marked stimulation of the rate of respiration
same,rate of respiration of whole yeast cells,[3]; up to a concentration of 15 μM,did not reduce the rate of respiration
same,stimulation of respiration versus suppression of growth,[3],increases respiration rate without inhibiting yeast growth
same,yeast growth rate (CFU),[4],significant reduction in the growth rate of the yeast Saccharomyces cerevisiae is not observed
same,concentration range of cationic uncoupler relative to FCCP,[5],at least an order of magnitude higher
same,concentration range protecting cells against amiodarone,[5]; 1-10000 nmol/L tested,1 to 1000 nmol/L
same,creatinine level in blood,[6],decrease in creatinine level in blood
same,"neurological deficit, test ""Stimulation of legs"" (14-point scale)","ischemized rats; control rats 2.0±0.2, p<0.01",5.3±1.1 points
same,volume of ischemic damage (T2-weighted MRT),ischemized rats; saline = 100±8.6%,80.4±11.5%
CCCCCCCCCCCCOC(=O)c1ccccc1-c1c2ccc(N(CC)CC)cc2[o+]c2cc(N(CC)CC)ccc12 [C12RB],formation of potential upon creation of gradient of the penetrating cation,[1],induced the potential upon addition at one side
same,formation of proton diffusion potential across lipid bilayer,[1],"but not C12RB, can generate potential"
same,"dissipation of pH gradient (intraliposomal pH change), protonophore activity",[2],practically no activity
same,rate of respiration of whole yeast cells,[3]; concentration of 4 μM,significant increase in the rate of respiration
same,rate of respiration of whole yeast cells,[3]; further increase in concentration above 4 μM,inhibition of respiration
"O=[N+]([O-])c1ccc(O)c([N+](=O)[O-])c1 [DNP, 2,4-dinitrophenol]",side effects in patients,obese people,many of them showed severe side effects
same,weight loss in patients,obese people,virtually all of the patients lost weight
N#CC(C#N)=NNc1ccc(OC(F)(F)F)cc1 [FCCP],"dissipation of pH gradient (intraliposomal pH change), protonophore activity",[2],significantly greater activity
same,uncoupling efficiency estimated from rate of oxygen consumption,[3]; FCCP compared with C12R19,much higher than that of C12R19
same,stimulation of respiration versus suppression of growth,[3],in contrast to FCCP
same,yeast cell death caused by amiodarone,[7],prevents yeast cell death caused by amiodarone
CC(C)[C@@H]1NC(=O)[C@H](C)OC(=O)[C@@H](C(C)C)NC(=O)[C@@H](C(C)C)OC(=O)[C@H](C(C)C)NC(=O)[C@H](C)OC(=O)[C@@H](C(C)C)NC(=O)[C@@H](C(C)C)OC(=O)[C@H](C(C)C)NC(=O)[C@H](C)OC(=O)[C@@H](C(C)C)NC(=O)[C@@H](C(C)C)OC1=O [valinomycin],proton flux on liposomes by valinomycin itself,"[2]; control experiments, data not shown",does not induce proton flux on liposomes
